From patent publication US20240182465A1 (GENFLEET THERAPEUTICS (SHANGHAI) INC., priority 2021, published 2024)
Where a name gives a salt, the structure may show the parent alone.

Columns and labels:
[1] = target: HPK1 (Homo sapiens, UniProt Q92918); test: SLP76 phosphorylation assay (intracellular HPK1 inhibitory activity, p-SLP76 Ser376 sandwich ELISA); details: p-SLP76 IC50(nM), Jurkat, Clone E6-1 cells; 1 h compound pre-incubation, anti-CD3 beads stimulation 20 min; SLP76 phosphorylation at S376
Target sequence in this assay (Q92918 whole entry): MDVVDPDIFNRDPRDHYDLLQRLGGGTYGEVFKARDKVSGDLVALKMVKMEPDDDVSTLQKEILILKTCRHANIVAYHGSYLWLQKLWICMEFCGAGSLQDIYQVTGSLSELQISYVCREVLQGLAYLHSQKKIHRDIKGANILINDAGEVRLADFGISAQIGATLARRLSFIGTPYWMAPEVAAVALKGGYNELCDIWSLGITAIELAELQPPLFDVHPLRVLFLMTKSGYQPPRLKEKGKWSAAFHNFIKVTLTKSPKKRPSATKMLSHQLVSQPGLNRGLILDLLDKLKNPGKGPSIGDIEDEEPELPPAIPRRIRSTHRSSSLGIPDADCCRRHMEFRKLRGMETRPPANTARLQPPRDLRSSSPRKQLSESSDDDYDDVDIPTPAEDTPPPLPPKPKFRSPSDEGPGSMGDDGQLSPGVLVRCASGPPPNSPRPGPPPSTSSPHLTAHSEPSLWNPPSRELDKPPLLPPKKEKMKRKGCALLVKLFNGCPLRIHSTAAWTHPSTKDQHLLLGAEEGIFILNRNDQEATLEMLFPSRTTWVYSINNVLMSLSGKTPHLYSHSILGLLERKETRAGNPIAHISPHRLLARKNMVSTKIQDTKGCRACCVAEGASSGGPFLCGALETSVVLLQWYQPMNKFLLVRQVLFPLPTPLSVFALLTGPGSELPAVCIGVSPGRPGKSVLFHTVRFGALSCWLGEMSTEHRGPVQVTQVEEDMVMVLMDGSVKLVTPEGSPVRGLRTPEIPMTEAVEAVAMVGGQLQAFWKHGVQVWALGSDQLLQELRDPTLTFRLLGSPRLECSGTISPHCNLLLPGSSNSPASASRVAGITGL
Experimental: Intracellular HPK1 inhibitory activity was tested by the detection of SLP76 phosphorylation at S376.
Preparation of 1000× drug stock plate: a 1000× compound stock plate was prepared. […] The compound stock plate was sealed with a sealing film and stored in a −20° C. refrigerator for later use.
Preparation of Beads wash buffer: 0.1 mL FBS and 0.4 mL 0.5 M EDTA (with a final concentration of 2 mM) were added to 100 mL PBS and stored in a 4° C. refrigerator for later use.
100× Protease Inhibitor Cocktail in 1/20 total volume was added and stored on wet ice for later use. The buffer was ready to use.
Cell inoculation and dosing: the 1000× drug stock plate was taken and melted at room temperature in the dark. […] Jurkat cells in the logarithmic growth phase were selected and collected. […] The cells were inoculated into a 96-well plate (the volume was 90 μL per well), and a blank control well (without cells inoculation, and in which 110 μL of medium was added) was set. 10 μL of a drug-containing culture medium (10×) was transferred from the 10× drug intermediate plate into the 96-well cell plate (with a final concentration of 0.1% DMSO), and set a DMSO control group (in which 0.1% DMSO was added to the treated cells), a stimulated control group (in which 10 μL of culture medium was added to treat cells) and an unstimulated group (in which 10 μL of culture medium was added to treat cells). The wells were duplicated, gently patted, mixed, and then placed into a 5% CO2 incubator at 37° C. for 1 h.
Anti-CD3 beads stimulation: Dynabeads anti-human CD3 was taken, shaken, and mixed for 60 s. The required volume of beads was pipetted, and an equal volume or at least 1 mL of washing solution was added to wash once. Fresh complete medium was then added to resuspend and adjust the density of the beads to 4×10^7/mL, and the beads were placed on ice for later use. At the end of drug pre-incubation, the cell culture plate was taken out. 10 μL Dynabeads anti-human CD3 was added to each well to treat the cells, and 10 μL the culture medium was added to the unstimulated group. The cell culture plate was shaken to mix well at 2500 rpm for 10 s, and then placed into a 5% CO2 incubator at 37° C. and continued to culture for 20 min.
Detection of p-SLP76 protein level. PathScan Phospho-SLP-76 (Ser376) Sandwich ELISA Kit was applied to detect p-SLP76 protein level. At the end of the Anti-CD3 beads stimulation, the cell culture plate was removed from the incubator. […] After lysis, the cell culture plate was centrifuged at 4° C., 400×g for 5 min. 25 μL of sample and 75 μL of sample diluent were added to each well, and the plate was placed in a 5% CO2 incubator at 37° C. for 2 h. The subsequent detection steps were carried out following the kit instructions, and the absorbance (OD value) of each well was read at 450 nm by a microplate reader.

[2] = target: T1, HPK1 (Homo sapiens, UniProt Q92918); test: HPK1 kinase activity assay (ADP-Glo); details: HPK1 Kinase activity IC50 (nM), 1 nM HPK1, 10 μM ATP, 0.1 μg/μL MBP
T1 sequence (Q92918 1-346 limits assumed): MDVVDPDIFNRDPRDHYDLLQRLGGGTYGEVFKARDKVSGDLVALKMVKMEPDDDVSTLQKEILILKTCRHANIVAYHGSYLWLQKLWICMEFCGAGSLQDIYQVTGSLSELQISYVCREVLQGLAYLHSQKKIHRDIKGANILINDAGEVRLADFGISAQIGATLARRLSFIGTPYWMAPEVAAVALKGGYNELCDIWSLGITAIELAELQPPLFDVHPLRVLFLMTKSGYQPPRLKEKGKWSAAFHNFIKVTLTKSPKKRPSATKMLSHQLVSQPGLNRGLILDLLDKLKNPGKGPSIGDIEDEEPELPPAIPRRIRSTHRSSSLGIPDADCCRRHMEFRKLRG

IC50 [1] [nM]	IC50 [2] [nM]	SMILES
254	0.61	Cc1c[nH]c2ncc(-c3cc4c(c([C@@H]5CCCN5)c3)CCN(C(=O)C(C)(C)O)C4)cc12 [Compound Z301, (S)-2-hydroxy-2-methyl-1-(7-(3-methyl-11H-pyrrolo[2,3-b]pyridin-5-yl)-5-(pyrrolidin-2-yl)-3,4-dihydroisoquinolin-2(1H)-yl)propan-1-one]
735	1.32	CC(=O)N1Cc2cc(-c3cnc4[nH]cc(C)c4c3)cc([C@@H]3CCCN3)c2C1 [Compound Z235, (S)-1-(6-(3-methyl-1H-pyrrolo[2,3-b]pyridin-5-yl)-4-(pyrrolidin-2-yl)isoindolin-2-yl)ethan-1-one]
3570	48.7	CN1CCc2cc(-c3cnc(N)c(-c4cnn(C)c4)c3)cc(C3CCCN3)c2C1 (stereo not shown) [Compound Z4, 3-(1-methyl-1H-pyrazol-4-yl)-5-(2-methyl-8-(pyrrolidin-2-yl)-1,2,3,4-tetrahydroisoquinolin-6-yl)pyridin-2-amine]
471	0.38	Cc1nn(C)cc1C(=O)N1CCc2cc(-c3cnc4[nH]cc(C)c4c3)cc([C@@H]3CCCN3)c2C1 [Compound Z282, (S)-(1,3-dimethyl-1H-pyrazol-4-yl)(6-(3-methyl-1H-pyrrolo[2,3-b]pyridin-5-yl)-8-(pyrrolidin-2-yl)-3,4-dihydroisoquinolin-2(1H)-yl)methanone]
170	0.64	Cc1c[nH]c2ncc(-c3cc4c(c([C@@H]5CCCN5)c3)CN(C(=O)c3cnn(CC(F)F)c3)CC4)cc12 [Compound Z306, (S)-[1-(2,2-difluoroethyl)pyrazol-4-yl]-[6-(3-methyl-1H-pyrrolo[2,3-b]pyridin-5-yl)-8-[pyrrolidin-2-yl]-3,4-dihydro-1H-isoquinolin-2-yl]methanone]
61.3	0.19	CC(C)(O)C(=O)N1CCc2cc(-c3cnc4[nH]cc(Cl)c4c3)cc([C@@H]3COCCN3)c2C1 [Compound Z418-1]
159	0.39	CC(=O)N1CCc2c(cc(-c3cnc4[nH]cc(C)c4c3)cc2[C@@H]2CCCN2)C1 [Compound Z139, (S)-1-(7-(3-methyl-1H-pyrrolo[2,3-b]pyridin-5-yl)-5-(pyrrolidin-2-yl)-3,4-dihydroisoquinolin-2(1H)-yl)ethan-1-one]
525	5.79	CN(C)Cc1cc(-c2cnc3[nH]cc(C(=O)NCC4(CO)CCC4)c3c2)cc2c1COCC2 [Compound Z107, 5-(8-((dimethylamino)methyl)isochroman-6-yl)-N-((1-(hydroxymethyl)cyclobutyl)methyl)-1H-pyrrolo[2,3-b]pyridine-3-carboxamide]
133	0.53	Cc1c[nH]c2ncc(-c3cc4c(c([C@@H]5CCCN5)c3)COCC4)nc12 [Compound Z106, (S)-7-methyl-2-(8-(pyrrolidin-2-yl)isochroman-6-yl)-5H-pyrrolo[2,3-b]pyrazine]
909	3.76	Cc1ccc(-c2c[nH]c3ncc(-c4cc5c(c([C@@H]6CCCN6)c4)COCC5)cc23)cn1 [Compound Z212, (S)-3-(6-methylpyridin-3-yl)-5-(8-(pyrrolidin-2-yl)isochroman-6-yl)-1H-pyrrolo[2,3-b]pyridine]
3810	29.6	CCN1Cc2c(cc(-c3cnc4[nH]cc(C)c4c3)cc2[C@@H]2CCCN2)C1=O [Compound Z236, (S)-2-ethyl-6-(3-methyl-1H-pyrrolo[2,3-b]pyridin-5-yl)-4-(pyrrolidin-2-yl)isoindolin-1-one]
1660	20.5	Cc1c[nH]c2ncc(-c3cc4c(c(C5CCN5)c3)COCC4)cc12 (stereo not shown) [Compound Z232, 5-(8-(azetidin-2-yl)isochroman-6-yl)-3-methyl-1H-pyrrolo[2,3-b]pyridine]
226	0.43	Cc1c[nH]c2ncc(-c3cc4c(c([C@@H]5CCCN5)c3)CN(C(=O)c3cnn(C5CC5)c3C)CC4)cc12 [Compound Z346, (S)-(1-cyclopropyl-5-methyl-1H-pyrazol-4-yl)-[6-(3-methyl-1H-pyrrolo[2,3-b]pyridin-5-yl)-8-[pyrrolidin-2-yl]-3,4-dihydroisoquinolin-2(1H)-yl]methanone]
257	0.66	Cc1c[nH]c2ncc(-c3cc4c(c([C@@H]5CCCN5)c3)CN(C(=O)C3CCOC3)CC4)cc12 (stereo partly shown) [Compound Z219]
179	0.71	Cc1c[nH]c2ncc(-c3cc4c(c([C@@H]5CCCN5)c3)CN(C(=O)C3CC3)CC4)cc12 [Compound Z122, (S)-1-(6-(3-methyl-1H-pyrrolo[2,3-b]pyridin-5-yl)-8-(pyrrolidin-2-yl)-3,4-dihydroisoquinolin-2(1H)-yl)cyclopropyl methyl ketone]
279	0.8	CCN1Cc2c(cc(-c3cnc4[nH]cc(C)c4c3)cc2[C@@H]2CCCN2)NC1=O [Compound Z256, (S)-3-ethyl-7-(3-methyl-1H-pyrrolo[2,3-b]pyridin-5-yl)-5-(pyrrolidin-2-yl)-3,4-dihydroquinazolin-2(1H)-one]
367	0.81	Cc1c[nH]c2ncc(-c3cc4c(c([C@@H]5CCCN5)c3)CN(C(=O)CC3CCOCC3)CC4)cc12 [Compound Z218, (S)-1-(6-(3-methyl-1H-pyrrolo[2,3-b]pyridin-5-yl)-8-(pyrrolidin-2-yl)-3,4-dihydroisoquinolin-2(1H)-yl)-2-(tetrahydro-2H-pyran-4-yl)ethanone]
95.3	0.52	Cc1c[nH]c2ncc(-c3cc4c(c([C@@H]5CCCN5)c3)CCN(C(=O)[C@H]3CCOC3)C4)cc12 [Compound Z294, (7-(3-methyl-1H-pyrrolo[2,3-b]pyridin-5-yl)-5-((S)-pyrrolidin-2-yl)-3,4-dihydroisoquinolin-2(1H)-yl) ((S)-tetrahydrofuran-3-yl)methanone]
204	0.49	c1cn2ccc(-c3c[nH]c4ncc(-c5cc6c(c([C@@H]7CCCN7)c5)COCC6)cc34)cc2n1 [Compound Z323]
272	0.97	CCN1Cc2cc(-c3cnc4[nH]cc(C)c4c3)cc([C@@H]3CCCN3)c2CC1=O [Compound Z292, (S)-2-ethyl-7-(3-methyl-1H-pyrrolo[2,3-b]pyridin-5-yl)-5-(pyrrolidin-2-yl)-1,4-dihydroisoquinolin-3(2H)-one]
174	0.36	Cc1c[nH]c2ncc(-c3cc4c(c([C@@H]5CCCN5)c3)CN(C(=O)c3cnn(C(F)F)c3)CC4)cc12 [Compound Z336, (S)-(1-(difluoromethyl)-1H-pyrazol-4-yl)-[6-(3-methyl-1H-pyrrolo[2,3-b]pyridin-5-yl)-8-[pyrrolidin-2-yl]-3,4-dihydroisoquinolin-2(1H)-yl]methanone]
125	0.93	Cc1c[nH]c2ncc(-c3cc4c(c([C@@H]5CCCN5)c3)CCN(C(=O)C3CC3)C4)cc12 [Compound Z302, (S)-cyclopropyl (7-(3-methyl-1H-pyrrolo[2,3-b]pyridin-5-yl)-5-(pyrrolidin-2-yl)-3,4-dihydroisoquinolin-2(1H)-yl)methanone]
390	1.06	CC(=O)N1CCc2cc(-c3cnc4[nH]cc(C)c4c3)cc([C@@H]3COCCN3)c2C1 (single isomer, unassigned) [Compound Z119-1]
150	0.33	Cc1c[nH]c2ncc(-c3cc4c(c([C@@H]5CCCN5)c3)CN(C(=O)c3ccnc(C(C)(C)O)c3)CC4)cc12 [Compound Z327, (S)-(2-(2-hydroxypropan-2-yl)pyridin-4-yl)(6-(3-methyl-1H-pyrrolo[2,3-b]pyridin-5-yl)-8-(pyrrolidin-2-yl)-3,4-dihydroisoquinolin-2(1H)-yl)methanone]

SMILES	IC50 [1] [nM]	IC50 [2] [nM]
Cc1cc(C(=O)N2Cc3cc(-c4cnc5[nH]cc(C)c5c4)cc([C@@H]4CCCN4)c3C2)cc(C)n1 [Compound Z262, (S)-(2,6-dimethylpyridin-4-yl)(6-(3-methyl-1H-pyrrolo[2,3-b]pyridin-5-yl)-4-(pyrrolidin-2-yl)isoindolin-2-yl)methanone hydrochloride]	627	1.72
Cc1c[nH]c2ncc(-c3cc4c(c([C@@H]5CCCN5)c3)CN(C(=O)N3CCOCC3(C)C)CC4)cc12 [Compound Z361]	102	0.36
Cc1c[nH]c2ncc(-c3cc4c(c([C@@H]5CCCN5)c3)CN(C(=O)[C@H](O)c3ccccc3)CC4)cc12 [Compound Z289, (R)-2-hydroxy-1-(6-(3-methyl-1H-pyrrolo[2,3-b]pyridin-5-yl)-8-((S)-pyrrolidin-2-yl)-3,4-dihydroisoquinolin-2(1H)-yl)-2-acetophenone]	378	1.35
Cc1c[nH]c2ncc(-c3cc4c(c([C@@H]5CCCN5)c3)CN(C(=O)N3CCOC[C@@H]3C)CC4)cc12 [Compound Z358-1]	67.4	0.23
CC(C)c1c[nH]c2ncc(-c3cc4c(c([C@@H]5COCCN5)c3)CN(C(=O)C3(O)CC3)CC4)cc12 [Compound Z433, (R)-(1-hydroxycyclopropyl)(6-(3-isopropyl-1H-pyrrolo[2,3-b]pyridin-5-yl)-8-(morpholin-3-yl)-3,4-dihydroisoquinolin-2(1H)-yl)methanone]	111	0.22
